Reference: the NIST ThermoML archive (doi:10.1021/je400260c)
Numbers after ± are expanded uncertainties.

Conditions: Crystal; DTA

## CCCCCCCCCCCCCCCC(=O)O [hexadecanoic acid]
  Normal melting temperature: 63 ± 1.1 °C

## CCCCCCCCCCCC(=O)O [dodecanoic acid]
  Normal melting temperature: 44.6 ± 0.9 °C

## CCCCCCCCCCCCCC(=O)O [tetradecanoic acid]
  Normal melting temperature: 54.4 ± 0.5 °C

## CCCCCCCCCCCCCCCCCC(=O)O [octadecanoic acid]
  Normal melting temperature: 69.8 ± 0.5 °C
